Source: patent US5434186A, “Carboxylic acid leukotriene B4 antagonists” (Hoffmann-La Roche Inc., priority 1993, dated 1995)

How the values were obtained:
[1] = target: T1, LTB4 Receptor (Homo sapiens, UniProt Q15722); assay: LTB4 Receptor Binding Assay (inhibition of 3H-LTB4 binding, human neutrophils); details: 0.5 nM 3H-LTB4, 45 minutes on ice, isolated human neutrophils
T1 construct: Isolated human neutrophils in Gey's salt solution; endogenous in cells; host or cells: human neutrophils isolated from blood (90-95% neutrophils)
T1 sequence (Q15722 whole entry): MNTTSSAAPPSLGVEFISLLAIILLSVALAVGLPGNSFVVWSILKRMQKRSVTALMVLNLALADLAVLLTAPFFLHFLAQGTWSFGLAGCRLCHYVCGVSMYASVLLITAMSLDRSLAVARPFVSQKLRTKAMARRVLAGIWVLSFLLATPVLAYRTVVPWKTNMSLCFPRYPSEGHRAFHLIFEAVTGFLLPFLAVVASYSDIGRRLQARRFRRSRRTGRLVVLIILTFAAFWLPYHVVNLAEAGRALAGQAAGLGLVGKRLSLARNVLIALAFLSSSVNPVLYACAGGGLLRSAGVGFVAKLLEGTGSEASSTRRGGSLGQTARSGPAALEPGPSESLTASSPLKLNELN
Protocol: Binding assays can be performed in microtiter wells. Isolated human neutrophils in Gey's salt solution are incubated on ice for 45 minutes with 0.5 nM ^3 H-LTB4 in the presence or absence of test compounds. Assays are terminated by adding 12 ml ice cold 50 mM Tris (pH 7.4) followed by rapid filtration under vacuum through GF/C filters. Radioactivity is determined by scintillation counting. Non specific binding is defined as the binding not displaced by 100 fold excess of unlabelled LTB4. Specific binding is defined as the difference between total binding and non-specific binding. Non linear analysis of the binding data is performed using LIGAND (Munson and Rodbard, 1980). Ki (Inhibition Constant) values were determined using the Cheng-Prusoff relationship (Cheng and Prusoff, 1973).
Human neutrophils are prepared from citrated or heparinized blood. The blood was diluted 1:1 with Hank's balanced salt solution (HBSS) minus calcium and magnesium and underlayed with 10 ml lymphocyte separation medium (Organon Teknika), followed by centrifugation at 500× g for 30 min., at room temperature. Supernatants are removed down to the red blood cell pellet. HBSS minus calcium and magnesium are added to give 25 ml. To this are added 25 ml 6% dextran in 0.85% NaCl. Samples are mixed and allowed to stand 20 min at room temperature. Supernatants are removed and centrifuged at 500× g for 5 min at 4° C. Pellets are resuspended with 20 ml 0.2% saline for 20 sec followed by the addition of 20 ml 1.6% saline. Samples are centrifuged at 500× g for 5 min at 4° C. The lysis is repeated and the cells (90-95% neutrophils) are resuspended at 2× 10^6 cell/ml in GEY's salt solution.

[2] = test system: LTB4 -induced bronchoconstriction; assay: Guinea Pig Bronchoconstriction In Vivo (LTB4-induced); design: species or system guinea pig (Hartley strain); details: Cavia porcellus, iv, i.v. five minutes prior to LTB4 (1 μg/kg i.v.), read-out: ID50 (mg/kg), i.v., LTB4-induced bronchoconstriction
Protocol: Male guinea pigs (Hartley strain) weighing 300 to 500 g are anesthetized with urethane (2 g/kg) intraperitoneally and a polyethylene cannula is inserted into the jugular vein for drug administration. Tracheal pressure is recorded from a cannula inserted into the trachea and connected to a Gould P23ID pressure transducer. After surgical preparation of the animals, a period of time is allowed for pulmonary functions to stabilize. The test compound is administered intravenously five minutes prior to leukotriene B4 administration according to the following protocol: Animals are paralyzed with succinylcholine (1.2 mg/kg i.v.) and mechanically respirated (Harvard rodent respirator) at 40 breaths/minute and 2.5 cc tidal volume. Propranolol (0.1 mg/kg) is then administered intravenously one minute prior to leukotriene B4 administration. Animals are then challenged with an intermediate constrictory dose of leukotriene B4 (1 μg/kg) delivered intravenously.
The change (cm H2 O) between pre and peak ventilatory pressure readings is averaged for five control and five drug treated animals. The percent inhibition is calculated from the formula:
((Control-Drug Treated)/Control)×100
When representative compounds of formula I of the invention were utilized as the test compounds the following results were obtained: […]

Ki [1] [nM]	SMILES	ED50 [2] [mg/kg]
80	CCCc1c(OCCCCCOc2ccccc2/C=C/C(=O)O)ccc2c1OCCC2=O [Example 109, (E)-3-[2-[5-[(3,4-Dihydro-4-oxo-8-propyl-2H-1-benzopyran-7-yl)oxy]pentyloxy]phenyl]-2-propenoic Acid]	–
4	CCCc1c(OCCCCCOc2ccc(C(=O)CCC(=O)O)cc2CCC(=O)O)ccc2c1OCCC2=O [Example 89, 3-(2-Carboxyethyl)-4-[5-[(3,4-dihydro-4-oxo-8-propyl-2H-1-benzopyran-7-yl)oxy]pentyloxy]-γ-oxobenzenebutanoic Acid]	4.33
–	CCCc1c(OCCCCCCc2cccc(OCCCC(=O)O)c2CCC(=O)O)ccc2c1OCCC2=O [Example 205, 2-(3-Carboxypropoxy)-6-[6-[(3,4-dihydro-4-oxo-8-propyl-2H-1-benzopyran-7-yl)oxy]hexyl]benzenepropanoic Acid]	0.26
10	CCCc1c(OCCCCCOc2ccc(C(C)=O)cc2CCC(=O)O)ccc2c1OCCC2=O [Example 33, 5-Acetyl-2-[5-[(3,4-dihydro-4-oxo-8-propyl-2H-1-benzopyran-7-yl)oxy]pentyloxy]benzenepropanoic Acid]	1.8
20	CCCc1c(CCCCCCOc2ccccc2CCC(=O)O)ccc2c1OCCC2=O [Example 106, 2-[6-(3,4-Dihydro-4-oxo-8-propyl-2H-1-benzopyran-7-yl)hexyloxy]benzenepropanoic Acid]	–
0.8	CCCc1c(OCCCCCCc2ccc(C(=O)CCCC(=O)O)cc2CCC(=O)O)ccc2c1OCCC2=O [Example 211, 3-(2-Carboxyethyl)-4-[6-[(3,4-dihydro-4-oxo-8-propyl-2H-1-benzopyran-7-yl)oxy]hexyl]-δ-oxobenzenepentanoic Acid]	2.39
3	CCCc1c(OCCCCCOc2ccc(OCCCC(=O)O)cc2CCC(=O)O)ccc2c1OCCC2=O [Example 47, 5-(3-Carboxypropoxy)-2-[5-[(3,4-dihydro-4-oxo-8-propyl-2H-1-benzopyran-7-yl)oxy]pentyloxy]benzenepropanoic Acid]	3.66
8	CCCc1c(OCCCCCOc2ccc(C(=O)c3ccccc3CC(=O)O)cc2CCC(=O)O)ccc2c1OCCC2=O [Example 95, 5-[[2-(Carboxymethyl)phenyl]carbonyl]-2-[5-[(3,4-dihydro-4-oxo-8-propyl-2H-1-benzopyran-7-yl)oxy]pentyloxy]benzenepropanoic Acid]	–
3	CCCc1c(OCCCCCOc2ccc(CCC(=O)O)cc2CCC(=O)O)ccc2c1OCCC2=O [Example 163, 4-[5-[(3,4-Dihydro-4-oxo-8-propyl-2H-1-benzopyran-7-yl)oxy]pentyloxy]-1,3-benzenedipropanoic Acid]	3.11
60	CCCc1c(OCCCCCOc2cccc(CCC(=O)O)c2)ccc2c1OCCC2=O [Example 68, 3-[5-[(3,4-Dihydro-4-oxo-8-propyl-2H-1-benzopyran-7-yl)oxy]pentyloxy]benzenepropanoic Acid]	3.56
–	CCCc1c(OCCCCCOc2ccccc2CCC(=O)O)ccc2c1CCCC2=O [Example 10, 2-[[5-(5-Oxo-1-propyl-5,6,7,8-tetrahydro-2-naphthalenyl)oxy]pentyloxy]benzenepropanoic Acid]	2.08
50	CCCc1c(C#CCCCCOc2ccccc2CCC(=O)O)ccc2c1OCCC2=O [Example 107, 2-[6-(3,4-Dihydro-4-oxo-8-propyl-2H-1-benzopyran-7-yl)-5-hexynyloxy]benzenepropanoic Acid]	–
3	CCCc1c(OCCCCCCCCOc2ccc(C(=O)c3cccc(C(=O)O)c3)cc2CCC(=O)O)ccc2c1OCCC2=O [Example 83, 5-[(3-Carboxyphenyl)carbonyl]-2-[8-[(3,4-dihydro-4-oxo-8-propyl-2H-1-benzopyran-7-yl)oxy]octyloxy]benzenepropanoic Acid]	–
270	CCCc1c(OCCCCCOc2ccc3oc(C(=O)O)cc3c2)ccc2c1OCCC2=O [Example 26, 5-[5-[(3,4-Dihydro-4-oxo-8-propyl-2H-1-benzopyran-7-yl)oxy]pentyloxy]-2-benzofurancarboxylic Acid]	–
–	CCCc1c(OCCCCCCc2cccc(OCCCCCCCC(=O)O)c2CCC(=O)O)ccc2c1OCCC2=O [Example 184, 2-[(7-Carboxyheptyl)oxy]-6-[6-[(3,4-dihydro-4-oxo-8-propyl-2H-1-benzopyran-7-yl)oxy]hexyl]benzenepropanoic Acid]	0.17
4	CCCc1c(OCCCC/C=C/c2ccc(C(=O)c3cccc(C(=O)O)c3)cc2CCC(=O)O)ccc2c1OCCC2=O [Example 101, (E)-5-[(3-Carboxyphenyl)carbonyl]-2-[6-[(3,4-dihydro-4-oxo-8-propyl-2H-1-benzopyran-7-yl)oxy]-1-hexenyl]benzenepropanoic Acid]	–
–	CCCc1c(OCCCCCCc2cccc(OCCCCCCCCC(=O)O)c2CCC(=O)O)ccc2c1OCCC2=O [Example 188, 2-[(8-Carboxyoctyl)oxy]-6-[6-[(3,4-dihydro-4-oxo-8-propyl-2H-1-benzopyran-7-yl)oxy]hexyl]benzenepropanoic Acid]	0.9
250	CCCc1c(OCCCCCOc2cccc3cc(C(=O)O)oc23)ccc2c1OCCC2=O [Example 19, 7-[5-[(3,4-Dihydro-4-oxo-8-propyl-2H-1-benzopyran-7-yl)oxy]pentyloxy]-2-benzofurancarboxylic Acid]	–
63	CCCc1c(OCCCCCc2ccccc2CCC(=O)O)ccc2c1OCCC2=O [Example 8, 2-[5-[(3,4-Dihydro-4-oxo-8-propyl-2H-1-benzopyran-7-yl)oxy]pentyl]benzenepropanoic Acid]	–
5	CCCc1c(OCCCCCOc2ccc(C(=O)Cc3ccccc3C(=O)O)cc2CCC(=O)O)ccc2c1OCCC2=O [Example 92, 5-[2-(2-Carboxyphenyl)-1-oxoethyl]-2-[5-[(3,4-dihydro-4-oxo-8-propyl-2H-1-benzopyran-7-yl)oxy]pentyloxy]benzenepropanoic Acid]	–
3	CCCc1c(OCCCCCCCOc2ccc(C(=O)c3cccc(C(=O)O)c3)cc2CCC(=O)O)ccc2c1OCCC2=O [Example 81, 5-[(3-Carboxyphenyl)carbonyl]-2-[7-[(3,4-dihydro-4-oxo-8-propyl-2H-1-benzopyran-7-yl)oxy]heptyloxy]benzenepropanoic Acid]	–
75	CCCc1c(OCCCCCOc2ccccc2CCC(=O)O)ccc2c1OCC2=O [Example 40, 2-[5-[(2,3-Dihydro-3-oxo-7-propylbenzofuran-6-yl)oxy]pentyloxy]benzenepropanoic Acid]	–
1	CCCc1c(OCCCCCCc2ccc(OCCCC(=O)O)cc2/C=C/C(=O)O)ccc2c1OCCC2=O [Example 114, (E)-4-[3-(2-carboxyethenyl)-4-[6-[(3,4-dihydro-4-oxo-8-propyl-2H-1-benzopyran-7-yl)oxy]hexyl]phenoxy]butanoic acid]	–
–	CCCc1c(OCCCCCCc2cccc(OCCCCCC(=O)O)c2CCC(=O)O)ccc2c1CCCC2=O [Example 206, 2-[(5-Carboxypentyl)oxy]-6-[6-[(5,6,7,8-tetrahydro-5-oxo-1-propyl-2-naphthalenyl)oxy]hexyl]benzenepropanoic Acid]	0.12
1500	CCCc1ccc2c(c1OCCCCCOc1ccccc1CCC(=O)O)CCCC2=O [Example 79, 2-[5-[(5-Oxo-2-propyl-5,6,7,8-tetrahydro-1-naphthalenyl)oxy]pentyloxy]benzenepropanoic Acid]	–
